# Laboratory results as given in patent publication US20050260711A1, “Modulating pH-sensitive binding using non-natural amino acids” (priority 2004, published 2005).
# Columns and labels:
# E. coli = test: growth and Nal incorporation of E. coli expression host with added AZL; format: cell-based; settings: AZL added to the medium
# Protocol: Incomplete occupancy of the UUG codon by Nal is due at least in part to competition with leucine-charged E. coli tRNA^LeuS. In an attempt to reduce competition by E. coli tRNA^LeuS, use of a mutant E. coli strain lacking tRNA^LeuCAA and addition of an E. coli leucyl-tRNA synthetase (LeuRS) inhibitor were tested. A Phe/Leu double auxotrophic strain derived from the tRNA^LeuCAA-deficient strain XA106 (CGSC at Yale) was tested for incorporation of Nal at the UUG codon.
# Peptide 5UUG/UUG (residues 26-35, […], SEQ ID NO: 8) contains two Leu residues encoded as UUG. Upon addition of Nal, the masses of these fragments shift in accord with the mass difference between Nal and Leu. Only Nal (a), Nal and 1 mM AZL (b) were supplemented into the media.
# E. coli LeuRS = E. coli LeuRS (Escherichia coli, UniProt P07813); settings: in vitro; cited from earlier work
# Sequence of E. coli LeuRS (P07813 whole entry): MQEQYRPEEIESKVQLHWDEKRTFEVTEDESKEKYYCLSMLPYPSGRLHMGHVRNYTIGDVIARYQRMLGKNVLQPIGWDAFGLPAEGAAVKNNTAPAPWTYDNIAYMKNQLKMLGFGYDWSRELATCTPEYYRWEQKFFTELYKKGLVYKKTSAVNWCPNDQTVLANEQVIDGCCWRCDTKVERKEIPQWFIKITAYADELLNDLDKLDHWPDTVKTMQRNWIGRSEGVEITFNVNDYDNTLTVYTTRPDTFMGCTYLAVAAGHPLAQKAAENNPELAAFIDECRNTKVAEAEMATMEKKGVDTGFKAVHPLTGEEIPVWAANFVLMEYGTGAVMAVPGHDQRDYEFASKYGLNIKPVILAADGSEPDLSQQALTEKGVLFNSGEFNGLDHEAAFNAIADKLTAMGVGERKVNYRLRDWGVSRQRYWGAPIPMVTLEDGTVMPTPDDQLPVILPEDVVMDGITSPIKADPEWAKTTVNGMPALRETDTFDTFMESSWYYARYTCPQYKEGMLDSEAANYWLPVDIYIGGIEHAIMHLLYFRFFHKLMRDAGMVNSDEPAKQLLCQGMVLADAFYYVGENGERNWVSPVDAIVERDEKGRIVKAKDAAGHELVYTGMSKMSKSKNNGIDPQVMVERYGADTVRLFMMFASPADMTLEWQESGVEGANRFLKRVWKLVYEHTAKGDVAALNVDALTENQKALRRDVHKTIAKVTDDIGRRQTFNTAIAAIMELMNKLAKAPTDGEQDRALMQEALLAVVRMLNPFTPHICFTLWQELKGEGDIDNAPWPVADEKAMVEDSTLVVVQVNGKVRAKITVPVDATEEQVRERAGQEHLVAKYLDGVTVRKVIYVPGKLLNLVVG
# [1] = cited from earlier work; for pKa (second of two pKa's): higher of the two pKa's of the side-chain moiety; for pKa (first of two pKa's): lower of the two pKa's of the side-chain moiety
# [2] = target: mu-yPheRS (modified yeast PheRS, Thr415Gly) (Saccharomyces cerevisiae, UniProt P15625, T415G); settings: Nal versus Phe
# Sequence of mu-yPheRS (modified yeast PheRS, Thr415Gly) (P15625 whole entry T415G): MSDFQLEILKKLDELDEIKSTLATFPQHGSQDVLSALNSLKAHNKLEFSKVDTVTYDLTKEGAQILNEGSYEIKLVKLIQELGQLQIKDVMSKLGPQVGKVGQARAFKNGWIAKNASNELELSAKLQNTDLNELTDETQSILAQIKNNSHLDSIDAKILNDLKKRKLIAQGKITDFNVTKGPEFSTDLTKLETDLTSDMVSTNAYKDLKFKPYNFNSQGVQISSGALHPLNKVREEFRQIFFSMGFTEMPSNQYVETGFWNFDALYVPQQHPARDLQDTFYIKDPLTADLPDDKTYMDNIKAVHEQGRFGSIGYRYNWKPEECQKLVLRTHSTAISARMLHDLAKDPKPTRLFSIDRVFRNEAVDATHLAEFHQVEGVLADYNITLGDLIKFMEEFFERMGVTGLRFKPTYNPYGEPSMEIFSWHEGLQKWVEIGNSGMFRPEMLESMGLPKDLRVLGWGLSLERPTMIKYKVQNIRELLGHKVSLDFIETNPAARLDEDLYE
# Sequence of mu-yPheRS (modified yeast PheRS, Thr415Gly) (P15624 whole entry, further chain): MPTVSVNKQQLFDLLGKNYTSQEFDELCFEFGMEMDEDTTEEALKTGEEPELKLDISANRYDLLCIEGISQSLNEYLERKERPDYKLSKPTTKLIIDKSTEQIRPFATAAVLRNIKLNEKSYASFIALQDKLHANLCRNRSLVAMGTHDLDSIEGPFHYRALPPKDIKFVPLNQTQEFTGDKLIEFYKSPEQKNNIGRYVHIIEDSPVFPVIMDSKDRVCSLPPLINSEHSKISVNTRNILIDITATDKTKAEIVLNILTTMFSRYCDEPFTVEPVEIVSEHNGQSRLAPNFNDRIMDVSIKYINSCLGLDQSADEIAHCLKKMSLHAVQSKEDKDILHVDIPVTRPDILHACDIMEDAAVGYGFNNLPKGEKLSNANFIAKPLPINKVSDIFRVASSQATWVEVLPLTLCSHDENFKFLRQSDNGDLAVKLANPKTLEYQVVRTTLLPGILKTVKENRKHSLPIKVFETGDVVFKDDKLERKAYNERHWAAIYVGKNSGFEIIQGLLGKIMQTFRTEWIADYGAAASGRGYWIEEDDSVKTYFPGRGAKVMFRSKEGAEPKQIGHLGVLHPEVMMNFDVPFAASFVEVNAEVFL
# Protocol: The modified yeast PheRS (mu-yPheRS) was prepared by introduction of a Thr415Gly mutation in the α-subunit of the synthetase (Datta et al., J. Am. Chem. Soc. 124: 5652, 2002). The kinetics of activation of Nal and Phe by mu-yPheRS were analyzed in vitro via the pyrophosphate exchange assay.
# [3] = target: leucine zipper c-MYC-MAX heterodimer (Homo sapiens, UniProt P01106+P61244); settings: histidine at the center of c-MYC-MAX leucine zipper; cited from earlier work
# Sequence of leucine zipper c-MYC-MAX heterodimer (P01106 428-449 limits assumed): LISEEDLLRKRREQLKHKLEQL
# Sequence of leucine zipper c-MYC-MAX heterodimer (P61244 81-102 limits assumed): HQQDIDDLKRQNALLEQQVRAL
structure (smiles),measurement,setting,value
"CN(C)CC(N)C(=O)O (racemic) [AZL, 4-Aza-DL-leucine]",growth rate of the host,E. coli,reduced the growth rate
same,occupancy of the UUG codon by Nal,E. coli; mDHFR expression,enhanced occupancy
same,inhibition of E. coli LeuRS,E. coli LeuRS,competitive inhibitor
N[C@@H](Cc1c[nH]c(F)n1)C(=O)O [2-fluoro-histidine],pKa (second of two pKa's),[1],11.5
same,pKa (first of two pKa's),[1],4.0
"N[C@@H](Cc1ccc2ccccc2c1)C(=O)O [Nal, L-3-(2-naphthyl)alanine]",kcat/KM relative to that for Phe,[2],8 fold
N[C@@H](Cc1c[nH]cn1)C(=O)O [histidine],"histidine pKa, experimental value",[3],7.19
same,pKa (second of two pKa's),[1],14.52
same,pKa (first of two pKa's),[1],7.05
